Measurements taken from publication PMC7946228, “Discovery of novel candidates for anti-liposarcoma therapies by medium-scale high-throughput drug screening” (PLoS ONE, 2021).

How the values were obtained:
Assay type in all cases: cell-based, human
liposarcoma cell lines [1] = test: Drug withdrawal, reversibility of growth arrest; settings: for reversibility of growth inhibition after drug removal: 120h treatment at growth arresting concentration, then 72h without drug, except T778 with MLN9708
Procedure: The cellular proliferation rate was measured using the IncuCyte ZOOM live-cell imaging system (Essen Bioscience, Birmingham, UK) with the corresponding software application (version 2013BRev1). First the growth rate for each cell line was established to estimate the seeding numbers of cells corresponding to 15–30% of confluence at the start of the experiment and maximum 70% after 72h. The drug treatment was initiated approximately 18h after seeding. The proliferation rate was measured as cell confluence over time through the acquisition of photographs under phase contrast every third hour for the entire duration of the drug treatment. During the drug treatment, media were not changed, and cells were not split. The growth reducing drug concentration was defined as lowest drug concentration leading to significant decrease of cellular growth between 40 and 72h after start of treatment. To determine that concentration, plots were generated using IncuCyte software and differences in growth between 40 and 72h were calculated using least-square means with the ‘emmeans’ R package version 1.4.3 [25]. Growth arresting concentrations were defined as minimal drug concentration under which cell confluence between 96 and 120h increases by less than 3%. Though growth arrest occurred much earlier, these time points ensured that the growth arrest is a stable phenomenon. These growth arresting concentrations were used for drug withdrawal, apoptosis and cell cycle experiments. All the data were verified with the plots. The presented values correspond to median values from two (T449, all compounds) to five (all cell lines, triptolide) biological replicates.
An important prerequisite for clinical implementation of these compounds as treatment for liposarcoma is irreversibility of the induced growth inhibition. We thus assessed if the drugs were only transiently cytostatic, which is especially important in case of the compounds that seem to work mainly via cell cycle arrest (APO866, GSK2126458). Cells were treated with the compounds at growth arresting concentrations for 120h after which the compounds were removed and cell numbers were monitored for another 72h. […] To irreversibly arrest cell proliferation GSK2126458 had to be used at 10x higher concentrations (100x for GOT3) (S5 Fig). Those concentrations are above physiological ranges (see Table 2), and these effects should be accounted for assessing use of GSK2126458 in clinic.

liposarcoma cell lines [2] = test: Cell cycle analysis of non-apoptotic cells (propidium iodide); settings: growth arresting concentration, non-apoptotic fraction
Procedure: (§1) Cells were treated with drugs at the concentrations corresponding to previously established growth arresting concentrations and collected between 17 and 72h. Time of collection was individual for every drug/cell line combination; cells were collected after the beginning of complete growth inhibition (based on the growth curves data) but only when first signs of morphological change or cell death were visible (estimated microscopically approximately every 2h). After methanol fixation, cells were barcoded with different combinations of Pacific Blue/Pacific Orange dyes (Thermo Fisher Scientific) for different drug treatments. After mixing, cells were incubated in the TUNEL reaction mix for 1h at 37°C, according to the manufacturer’s instructions (Roche, Germany), stained with Streptavidin-Cy5 conjugated Ab and digested with RNAse. Cells were counter-stained with propidium iodide and analyzed using LSR II Flow Cytometer (BD Biosciences, NJ, USA. The data were processed with FlowJo Version 7.6.5 (Tree Star, Ashland, USA). The gating strategy is presented in Fig 3A. Cy-5 positive cells (as compared to control sample) were calculated as apoptotic. Cell cycles of non-apoptotic cells were analyzed using the built in FlowJo Cell Cycle Analysis module. Three independent biological replicates were done for each cell line/drug combination with exception of FU-DDLS-1 and T1000 –for which we only had two replicates available.

liposarcoma cell lines [3] = test: TUNEL apoptosis assay by flow cytometry; settings: growth arresting concentration, 17-72h, majority of cell lines
Procedure: as §1

[4] = test system: FU-DDLS-1 liposarcoma cell line; test: CellTiter-Glo viability, GR50, 72h; settings: Homo sapiens; FU-DDL S-1, 72h; read-out: Half maximum effective concentration corrected for cell growth (GR50)
Procedure: (§2) Cell viability was measured using the CellTiter-Glo Luminescent Cell Viability Assay (Promega, Wisconsin, United States). For each experiment the same cell numbers were seeded as for the proliferation experiments. Seven drug concentrations were used, starting from 100μM with 10-fold dilutions and also a vehicle control appropriate for each drug (DMSO or ethanol). After 72h of drug or vehicle control treatment levels of ATP were measured with CellTiter-Glo. The data from six to nine biological replicates, each with three technical replicates were collected. A nonlinear regression model with different four-parameter log-logistic function was used for modelling of the drug dose-response using ‘GRmetrics’ R package version 1.8.1 [26]. The calculated GR50 metric is equivalent to the IC50 metric but takes into account the growth rate of cells. Therefore, it estimates better the effect of the compound on cell viability and allows for comparison between different cell lines with different growth rates.

[5] = test system: SA-4 liposarcoma cell line; test: CellTiter-Glo viability, GR50, 72h; settings: Homo sapiens; SA-4, 72h; read-out: Half maximum effective concentration corrected for cell growth (GR50)
Procedure: as §2

[6] = test system: LPS141 liposarcoma cell line; test: CellTiter-Glo viability, GR50, 72h; settings: Homo sapiens, LPS141; LPS 141, 72h; read-out: Half maximum effective concentration corrected for cell growth (GR50)
Procedure: as §2

[7] = test system: LPS510 liposarcoma cell line; test: CellTiter-Glo viability, GR50, 72h; settings: Homo sapiens; LPS 510, 72h; read-out: Half maximum effective concentration corrected for cell growth (GR50)
Procedure: as §2

[8] = test system: GOT3 liposarcoma cell line; test: CellTiter-Glo viability, GR50, 72h; settings: Homo sapiens; GOT3, 72h; read-out: Half maximum effective concentration corrected for cell growth (GR50)
Procedure: as §2

[9] = test system: T1000 liposarcoma cell line; test: CellTiter-Glo viability, GR50, 72h; settings: Homo sapiens; T1000, 72h; read-out: Half maximum effective concentration corrected for cell growth (GR50)
Procedure: as §2

[10] = test system: LiSa-2 liposarcoma cell line; test: CellTiter-Glo viability, GR50, 72h; settings: Homo sapiens; LiSa-2, 72h; read-out: Half maximum effective concentration corrected for cell growth (GR50)
Procedure: as §2

[11] = test system: T778 liposarcoma cell line; test: CellTiter-Glo viability, GR50, 72h; settings: Homo sapiens; T778, 72h; read-out: Half maximum effective concentration corrected for cell growth (GR50)
Procedure: as §2

[12] = test system: T449 liposarcoma cell line; test: CellTiter-Glo viability, GR50, 72h; settings: Homo sapiens; T449, 72h; read-out: Half maximum effective concentration corrected for cell growth (GR50)
Procedure: as §2

[13] = test system: NRH-LS1 liposarcoma cell line; test: CellTiter-Glo viability, GR50, 72h; settings: Homo sapiens; NRH-LS1, 72h; read-out: Half maximum effective concentration corrected for cell growth (GR50)
Procedure: as §2

[14] = test system: LPS853 liposarcoma cell line; test: CellTiter-Glo viability, GR50, 72h; settings: Homo sapiens; LPS 853, 72h; read-out: Half maximum effective concentration corrected for cell growth (GR50)
Procedure: as §2

[15] = test system: SW872 liposarcoma cell line; test: CellTiter-Glo viability, GR50, 72h; settings: Homo sapiens, SW872; SW 872, 72h; read-out: Half maximum effective concentration corrected for cell growth (GR50)
Procedure: as §2

Row | IC50 [4] | IC50 [5] | IC50 [6] | IC50 [7] | IC50 [8] | IC50 [9] | IC50 [10] | IC50 [11] | IC50 [12] | IC50 [13] | IC50 [14] | IC50 [15] | SMILES | reversibility of growth inhibition after drug removal (liposarcoma cell lines [1]) | cell cycle phase in which cells are blocked (liposarcoma cell lines [2]) | apoptosis (increase in % of apoptotic cells) (liposarcoma cell lines [3]) | concentration needed for irreversible growth arrest relative to growth arresting concentration (liposarcoma cell lines [1]; cell lines that resumed growth, 100x for GOT3 with GSK2126458)
1 | 1 nM | 10 nM | 6 nM | 3 nM | 5 nM | 6 nM | 8 nM | 3 nM | 1 nM | 1 nM | 1 nM | 4 nM | O=C(/C=C/c1cccnc1)NCCCCC1CCN(C(=O)c2ccccc2)CC1 [APO866] | irreversibly inhibited growth of all tested cell lines | less specific arrest | ≤ 5% | 
2 | 12 nM | 44 nM | 102 nM | 33 nM | 22 nM | 10 nM | 21 nM | 25 nM | 25 nM | 103 nM | 18 nM | 70 nM | Cn1cc(CNCC2CCN(c3ncc(C(=O)NO)cn3)CC2)c2ccccc21 [JNJ-26481585] | irreversibly inhibited growth of all tested cell lines | G1 and G2 phases | above 5% | 
3 | 49 nM | 30 nM | 11 nM | 93 nM | 187 nM | 17 nM | 234 nM | 96 nM | 712 nM | 69 nM | 4 nM | 2 nM | COCCn1c2c([n+](Cc3cnccn3)c1C)C(=O)c1ccccc1C2=O [YM155] | Some cell lines such as LPS141, T778 and SA-4 resumed growth | less specific arrest | above 5% | 10 x higher

Row | SMILES | IC50 [4] | IC50 [5] | IC50 [6] | IC50 [7] | IC50 [8] | IC50 [9] | IC50 [10] | IC50 [11] | IC50 [12] | IC50 [13] | IC50 [14] | IC50 [15] | reversibility of growth inhibition after drug removal (liposarcoma cell lines [1]) | cell cycle phase in which cells are blocked (liposarcoma cell lines [2]) | apoptosis (increase in % of apoptotic cells) (liposarcoma cell lines [3]) | concentration needed for irreversible growth arrest relative to growth arresting concentration (liposarcoma cell lines [1]; cell lines that resumed growth, 100x for GOT3 with GSK2126458)
4 | CC(C)[C@]12O[C@H]1[C@@H]1O[C@]13[C@]1(O[C@H]1C[C@H]1C4=C(CC[C@@]13C)C(=O)OC4)[C@@H]2O [Triptolide] | 8 nM | 13 nM | 12 nM | 5 nM | 7 nM | 8 nM | 9 nM | 8 nM | 8 nM | 7 nM | 5 nM | 2 nM | irreversibly inhibited growth of all tested cell lines | S phase | above 15% | 
